# Several values for one entry are separate records, joined by “and”; a condition that tells them apart may be missing. Equal entries are not always repeated. Inconclusive results and toxic doses are left out.
# Tested on: P388 leukemia ip, CD2F1 mice, survival T/C
# Experiment: NCI In Vivo Anticancer Drug Screen. Data for tumor model P388 Leukemia (intraperitoneal) in CD2F1 (CDF1) mice
# Conditions: endpoint: median survival time, higher = longer survival
# Outline: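 Mice carrying the transplanted tumor received test compound or vehicle. Survival was recorded in each group, and the value is the treated-group measurement divided by that of the vehicle-treated control group.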
# [1] = dose: 50.0 mg/kg/injection, schedule: Q01DX009 (ip), vehicle: Klucel (hydroxypropylcellulose) (HPC)
# [2] = dose: 100.0 mg/kg/injection, schedule: Q01DX009 (ip), vehicle: Klucel (hydroxypropylcellulose) (HPC)
# [3] = dose: 200.0 mg/kg/injection, schedule: Q01DX009 (ip), vehicle: Klucel (hydroxypropylcellulose) (HPC)
# [4] = dose: 100.0 mg/kg/injection, schedule: Q01DX005 (ip), vehicle: Klucel (hydroxypropylcellulose) (HPC)
# [5] = dose: 25.0 mg/kg/injection, schedule: Q01DX001 (ip), vehicle: saline with Tween-80
# [6] = dose: 50.0 mg/kg/injection, schedule: Q01DX005 (ip), vehicle: saline with Tween-80
# [7] = dose: 100.0 mg/kg/injection, schedule: Q01DX005 (ip), vehicle: saline with Tween-80
# [8] = dose: 200.0 mg/kg/injection, schedule: Q01DX005 (ip), vehicle: saline with Tween-80
# [9] = dose: 50.0 mg/kg/injection, schedule: Q01DX009 (ip), vehicle: saline
# [10] = dose: 100.0 mg/kg/injection, schedule: Q01DX009 (ip), vehicle: saline
# [11] = dose: 100.0 mg/kg/injection, schedule: Q01DX001 (ip), vehicle: saline with Tween-80
smiles,measurement,setting,value
CC(=NCCN=C(C)c1ccccc1O)c1ccccc1O,T/C,[1],105 % of control
same,T/C,[2],114 % of control
same,T/C,[3],115 % of control
COC(=O)c1ccc(N=NN(C)CN=[N+]=[N-])cc1,T/C,"dose: 12.5 mg/kg/injection, schedule: Q01DX005 (ip), vehicle: Klucel (hydroxypropylcellulose) (HPC)",106 % of control
same,T/C,"dose: 25.0 mg/kg/injection, schedule: Q01DX005 (ip), vehicle: Klucel (hydroxypropylcellulose) (HPC)",124 % of control
same,T/C,[4],160 % of control and 172 % of control
CC1C2COCC2CC2OC21 (centres undefined),T/C,"dose: 6.25 mg/kg/injection, schedule: Q01DX001 (ip), vehicle: saline with Tween-80",109 % of control
same,T/C,"dose: 12.5 mg/kg/injection, schedule: Q01DX001 (ip), vehicle: saline with Tween-80",100 % of control
same,T/C,[5],104 % of control
Cc1cc(O)ccc1Nc1ccc(N(CCCl)CCCl)cc1,T/C,"dose: 200.0 mg/kg/injection, schedule: Q04DX003 (ip), vehicle: Klucel (hydroxypropylcellulose) (HPC)",166 % of control
same,T/C,"dose: 400.0 mg/kg/injection, schedule: Q04DX003 (ip), vehicle: Klucel (hydroxypropylcellulose) (HPC)",154 % of control
NC(=O)CC(N)C(=O)O.[Cl-].[Cl-].[Cl-].[Cl-].[Pt+2] (centres undefined),T/C,"dose: 1.56 mg/kg/injection, schedule: Q01DX009 (ip), vehicle: water",99 % of control
same,T/C,"dose: 3.13 mg/kg/injection, schedule: Q01DX009 (ip), vehicle: water",100 % of control
same,T/C,"dose: 6.25 mg/kg/injection, schedule: Q01DX009 (ip), vehicle: water",100 % of control
CC(O)C(NC(=O)SCc1ccccc1)C(=O)O (centres undefined),T/C,[6],101 % of control
same,T/C,[7],90 % of control
same,T/C,[8],92 % of control
COc1ccc2c(c1)CCC(c1nc3ccc(Cl)cc3[nH]c1=O)=C2O,T/C,"dose: 60.0 mg/kg/injection, schedule: Q01DX005 (ip), vehicle: Klucel (hydroxypropylcellulose) (HPC)",101 % of control
same,T/C,"dose: 120.0 mg/kg/injection, schedule: Q01DX005 (ip), vehicle: Klucel (hydroxypropylcellulose) (HPC)",92 % of control
same,T/C,"dose: 240.0 mg/kg/injection, schedule: Q01DX005 (ip), vehicle: Klucel (hydroxypropylcellulose) (HPC)",91 % of control
COc1cccc2c1C(=O)c1c(O)c3c(c(O)c1C2=O)CC(O)(C(C)=O)CC3OC1CC(NC(=O)C(CCCCN)NC(=O)C(N)CCN)C(O)C(C)O1 (centres undefined),T/C,"dose: 2.5 mg/kg/injection, schedule: Q04DX003 (ip), vehicle: water",94 % of control
same,T/C,"dose: 5.0 mg/kg/injection, schedule: Q04DX003 (ip), vehicle: water",94 % of control
same,T/C,"dose: 10.0 mg/kg/injection, schedule: Q04DX003 (ip), vehicle: water",98 % of control
same,T/C,"dose: 20.0 mg/kg/injection, schedule: Q04DX003 (ip), vehicle: water",101 % of control
same,T/C,"dose: 40.0 mg/kg/injection, schedule: Q04DX003 (ip), vehicle: water",105 % of control
same,T/C,"dose: 80.0 mg/kg/injection, schedule: Q04DX003 (ip), vehicle: distilled water + Tween-80",96 % of control
same,T/C,"dose: 160.0 mg/kg/injection, schedule: Q04DX003 (ip), vehicle: distilled water + Tween-80",105 % of control
same,T/C,"dose: 320.0 mg/kg/injection, schedule: Q04DX003 (ip), vehicle: distilled water + Tween-80",105 % of control
CCOc1cc2c(cc1Cc1ccc(OC)cc1)OCO2,T/C,"dose: 50.0 mg/kg/injection, schedule: Q01DX005 (ip), vehicle: distilled water + alcohol",108 % of control
same,T/C,"dose: 100.0 mg/kg/injection, schedule: Q01DX005 (ip), vehicle: distilled water + alcohol",95 % of control
same,T/C,"dose: 200.0 mg/kg/injection, schedule: Q01DX005 (ip), vehicle: distilled water + alcohol",109 % of control
O=C(N[C@H](CO)[C@H]1CC(Br)=NO1)C(Cl)(Cl)Cl,T/C,"dose: 11.25 mg/kg/injection, schedule: Q01DX005 (ip), vehicle: distilled water + Tween-80",102 % of control
same,T/C,"dose: 22.5 mg/kg/injection, schedule: Q01DX005 (ip), vehicle: distilled water + Tween-80",105 % of control
same,T/C,"dose: 45.0 mg/kg/injection, schedule: Q01DX005 (ip), vehicle: distilled water + Tween-80",107 % of control
same,T/C,"dose: 90.0 mg/kg/injection, schedule: Q01DX005 (ip), vehicle: distilled water + Tween-80",112 % of control
CCCCCCCCCCCCCCCCN1CCSCC1,T/C,"dose: 12.5 mg/kg/injection, schedule: Q01DX009 (ip), vehicle: saline",91 % of control
same,T/C,"dose: 25.0 mg/kg/injection, schedule: Q01DX009 (ip), vehicle: saline",97 % of control
same,T/C,[9],98 % of control and 100 % of control
same,T/C,[10],92 % of control
CC1=CCc2c(c(NS(=O)(=O)c3ccccc3)c3ccccc3c2NS(=O)(=O)c2ccccc2)C1,T/C,[5],105 % of control
same,T/C,"dose: 50.0 mg/kg/injection, schedule: Q01DX001 (ip), vehicle: saline with Tween-80",90 % of control
same,T/C,[11],90 % of control
O=Cc1ccc(O)c(O)c1,T/C,[9],106 % of control and 109 % of control
same,T/C,[10],110 % of control
same,T/C,"dose: 400.0 mg/kg/injection, schedule: Q01DX009 (ip), vehicle: saline",107 % of control
CC(CCc1ccccc1)C(=O)Nc1ccccc1 (centres undefined),T/C,"dose: 100.0 mg/kg/injection, schedule: Q04DX002 (ip), vehicle: saline with Tween-80",99 % of control
same,T/C,"dose: 200.0 mg/kg/injection, schedule: Q04DX002 (ip), vehicle: saline with Tween-80",96 % of control
same,T/C,"dose: 400.0 mg/kg/injection, schedule: Q04DX002 (ip), vehicle: saline with Tween-80",95 % of control
[Cl][Pt][Cl].[NH-]C(CO)C(=O)O (centres undefined),T/C,"dose: 6.25 mg/kg/injection, schedule: Q01DX005 (ip), vehicle: water",119 % of control
same,T/C,"dose: 12.5 mg/kg/injection, schedule: Q01DX005 (ip), vehicle: water",113 % of control
same,T/C,"dose: 25.0 mg/kg/injection, schedule: Q01DX005 (ip), vehicle: water",122 % of control
same,T/C,"dose: 50.0 mg/kg/injection, schedule: Q01DX005 (ip), vehicle: water",153 % of control
CCOC(=O)C1=C(C)NC(C)=C(C(=O)OCC)C1c1ccncc1,T/C,"dose: 25.0 mg/kg/injection, schedule: Q01DX009 (ip), vehicle: other",103 % of control
same,T/C,"dose: 50.0 mg/kg/injection, schedule: Q01DX009 (ip), vehicle: other",89 % of control
same,T/C,"dose: 100.0 mg/kg/injection, schedule: Q01DX009 (ip), vehicle: other",96 % of control
same,T/C,"dose: 200.0 mg/kg/injection, schedule: Q01DX009 (ip), vehicle: other",97 % of control
same,T/C,"dose: 400.0 mg/kg/injection, schedule: Q01DX009 (ip), vehicle: other",95 % of control
C=C1CC2(CCOc3ccc(Cl)cc32)OC1=O (centres undefined),T/C,"dose: 25.0 mg/kg/injection, schedule: Q04DX003 (ip), vehicle: saline with Tween-80",110 % of control
same,T/C,"dose: 50.0 mg/kg/injection, schedule: Q04DX003 (ip), vehicle: saline with Tween-80",118 % of control
same,T/C,"dose: 100.0 mg/kg/injection, schedule: Q04DX003 (ip), vehicle: saline with Tween-80",101 % of control and 116 % of control
same,T/C,"dose: 200.0 mg/kg/injection, schedule: Q04DX003 (ip), vehicle: saline with Tween-80",101 % of control
Cc1ccc(S(=O)CC(O)c2ccccc2)cc1 (centres undefined),T/C,"dose: 50.0 mg/kg/injection, schedule: Q01DX009 (ip), vehicle: saline with Tween-80",110 % of control
same,T/C,"dose: 100.0 mg/kg/injection, schedule: Q01DX009 (ip), vehicle: saline with Tween-80",101 % of control
same,T/C,"dose: 200.0 mg/kg/injection, schedule: Q01DX009 (ip), vehicle: saline with Tween-80",100 % of control
COC(=O)C1=COC(C)C2CN3CCc4c([nH]c5ccccc45)C3CC12 (centres undefined),T/C,[6],106 % of control
same,T/C,"dose: 60.0 mg/kg/injection, schedule: Q01DX005 (ip), vehicle: saline with Tween-80",100 % of control
same,T/C,[7],106 % of control
same,T/C,"dose: 120.0 mg/kg/injection, schedule: Q01DX005 (ip), vehicle: saline with Tween-80",93 % of control
same,T/C,[8],100 % of control
same,T/C,"dose: 240.0 mg/kg/injection, schedule: Q01DX005 (ip), vehicle: saline with Tween-80",90 % of control
COC(=O)CCSC(=O)NCCCCCCNC(=O)SCCC(=O)OC,T/C,"dose: 50.0 mg/kg/injection, schedule: Q01DX005 (ip), vehicle: Klucel (hydroxypropylcellulose) (HPC)",98 % of control
same,T/C,[4],100 % of control
same,T/C,"dose: 200.0 mg/kg/injection, schedule: Q01DX005 (ip), vehicle: Klucel (hydroxypropylcellulose) (HPC)",98 % of control
Cn1c2cc(O)cc(O)c2c(=O)c2cccc([N+](=O)[O-])c21,T/C,[11],104 % of control
same,T/C,"dose: 200.0 mg/kg/injection, schedule: Q01DX001 (ip), vehicle: saline with Tween-80",103 % of control
same,T/C,"dose: 400.0 mg/kg/injection, schedule: Q01DX001 (ip), vehicle: saline with Tween-80",101 % of control
c1ccc(SC(Sc2ccccc2)=C2CCCCC2)cc1,T/C,[1],100 % of control
same,T/C,[2],106 % of control
same,T/C,[3],90 % of control
